# Earlier results as cited in patent US20050244357A1, “Oil-containing emulsifiable formulations containing active agents” (priority 2004, published 2005).
# Test system: thrips
# Settings: cotton, applied alone
compound,measurement,value
CNC(=O)CSP(=S)(OC)OC [Dimethoate],control of thrips,good control
